Here are results for eight molecules from patent US20050282833A1, “Pharmacological treatment of psoriasis” (priority 2002, published 2005).

Series [1] relates to human herpesvirus (HHV-6). Particulars: ranking among herpes viruses; cited from earlier work.
The test system of a further series is cytomegalovirus (CMV). Particulars: ranking among herpes viruses; cited from earlier work.
Series [2] deals with patient with a history of plaque psoriasis. Description: Case study 1: valacyclovir treatment of a plaque psoriasis patient. Type of series: in vivo, human. Here is the method: A patient with a history of plaque psoriasis over the last several years was diagnosed by their physician. Patient was treated with valacyclovir tablets at 500 mg taken 2 times a day for 20 days.
In series [3] the test system is patient with a history of reoccurring plaque psoriasis. Description: Case study 2: Valtrex (valacyclovir) treatment of a plaque psoriasis patient. It counts as in vivo, human. Particulars: tablets 500 mg 3 times a day for several weeks, then 1.0 gram 3 times a day for several weeks; person. As for the experimental part: A person with a history of reoccurring plaque psoriasis over the last 30 years, as diagnosed by their physician, began treatment with […] (valacyclovir) tablets at 500 mg taken 3 times a day for several weeks. Dosage of […] increased to 1.0 gram taken 3 times a day for several weeks. Both the psoriatic lesions and other symptoms associated with psoriasis improved and cleared to 75-80% recovery.

In series [4] the test system is patients with psoriasis. As to conditions: cited from earlier work.
Series [5] relates to patients with psoriatic lesions / psoriatic arthritis. As to conditions: cited from earlier work.
The test system of series [6] is patients with psoriasis. Particulars: 10 week trial, cited from earlier work.
In the next series the test system is pustular psoriasis. As to conditions: in vivo; cited from earlier work.
Series [7] has as its system psoriatic lesions of patients. Particulars: once daily over 24 days; cited from earlier work.
The subject of series [8] is patients with plaque psoriasis. Particulars: after 8 weeks of therapy; cited from earlier work.

For `Nc1nc2c(ncn2COCCO)c(=O)[nH]1` [acyclovir], the activity against virus entry (in [1]; in the series with cytomegalovirus (CMV)) was “least active” throughout.

Regarding `CC(C)[C@H](N)C(=O)OCCOCn1cnc2c(=O)[nH]c(N)nc21` [valacyclovir], in [2] (since treatment ended), the “reoccurrence of the psoriatic symptoms” value was “No reoccurrence”. Moreover, the “recovery from the psoriasis” value in [2] (tablets 500 mg 2 times a day for 20 days, person, plaque psoriasis) is recorded as “complete recovery”. Further, the “recovery (psoriatic lesions and other symptoms improved and cleared)” value in series [3] is reported as 75-80%.

For the molecule basiliximab, the “long-lasting clearing of lesions after last treatment” value in the series on patients with psoriasis [4] (one patient with acute exacerbating psoriasis) is on record as “more than 10 weeks”. In addition, the improvement of lesions entry in the series with patients with psoriasis [4] (second patient with stable chronic plaque psoriasis) is listed as “did not show improvement”.

In the case of etanercept, the “mean improvement of psoriatic lesions” value in [5] (12 weeks) is recorded as 46%. Also, the “response to treatment in patients diagnosed with psoriatic arthritis” value in [5] (psoriatic arthritis) is recorded as 73%.

As for hu1124: anti-CD11a-antibody, the “patients with headaches, chills, and fever” value with patients with psoriasis [6] is listed as “over half of the patients”. The improvement of psoriasis result in the series with patients with psoriasis [6] (high dose group) is “only moderate improvement”.

Regarding “infliximab: monoclonal antibody directed against TNF-α”, the “treating and sustaining clearing of pustular psoriasis” value in the series on pustular psoriasis is recorded as “highly effective”.

B1: IL-10: cytokine, inhibitor of Th1-type cell priming and Th2-type mediator (protein, UniProt P22301 19-178, looked up)
Interleukin-10: SPGQGTQSENSCTHFPGNLPNMLRDLRDAFSRVKTFFQMKDQLDNLLLKESLLEDFKGYLGCQALSEMIQFYLEEVMPQAENQDPDIKAHVNSLGENLKTLRLRLRRCHRFLPCENKSKAVEQVKNAFNKLQEKGIYKAMSEFDIFINYIEAYMTMKIRN
As for B1, in [7], the “improvement to psoriatic lesions” value is recorded as “some improvement”.

B2: daclizumab: monoclonal antibody masking the cellular receptor CD25 for IL-2 (antibody, chains of the INN, looked up, V domains shown)
VH: QVQLVQSGAEVKKPGSSVKVSCKASGYTFTSYRMHWVRQAPGQGLEWIGYINPSTGYTEYNQKFKDKATITADESTNTAYMELSSLRSEDTAVYYCARGGGVFDYWGQGTLVTVSS
VL: DIQMTQSPSTLSASVGDRVTITCSASSSISYMHWYQQKPGKAPKLLIYTTSNLASGVPARFSGSGSGTEFTLTISSLQPDDFATYYCHQRSTYPLTFGQGTKVEVK
B2: in series [8], the “patients experiencing a reduction in severity of plaque psoriasis” value is recorded as 30%.
